US12037345B2, “Heterobicyclic compounds for inhibiting the activity of SHP2” (TAIHO PHARMACEUTICAL CO., LTD., priority 2018, dated 2024)
Like-named read-outs stand apart in the source and are kept apart here.

Columns and labels:
SHP2 = SHP2 (Homo sapiens (Human), UniProt Q06124); test: SHP2 Biochemical Assay (DiFMUP conversion, pIRS1-activated); details: Table 19; head prints unit as "-M"
Outline: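 Human SHP2 (10 pM) pre-incubated 30 min with compound and […] pIRS1 activating peptide, then 50 μM DiFMUP added; buffer 25 mM Bis-Tris propane pH 7.0, 150 mM NaCl, 5% DMSO. Fluorescence rate (ex 360/em 450 nm) over 30 min; IC50 by four-parameter fit, averaged across experiments.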

[1] = system: pERK (phospho-p44/42 ERK) in HCC827 cells; test: Cellular pERK Inhibition Assay, Method A (In-Cell Western); assay type: cell-based; details: Table 19, head prints unit as "-M", read-out: pERK (IC50) Method A
Outline: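 HCC827 cells in RPMI/10% FBS were treated with compounds in serum-free medium (0.2% DMSO final) at 37 °C for the indicated time, in quadruplicate. Fixed cells were immunostained for phospho-p44/42 ERK and read by infrared imaging. Blank-subtracted signal was expressed as % of DMSO control; IC50 from four-parameter logistic fit, averaged across experiments.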

Sequence of SHP2 (Q06124 whole entry): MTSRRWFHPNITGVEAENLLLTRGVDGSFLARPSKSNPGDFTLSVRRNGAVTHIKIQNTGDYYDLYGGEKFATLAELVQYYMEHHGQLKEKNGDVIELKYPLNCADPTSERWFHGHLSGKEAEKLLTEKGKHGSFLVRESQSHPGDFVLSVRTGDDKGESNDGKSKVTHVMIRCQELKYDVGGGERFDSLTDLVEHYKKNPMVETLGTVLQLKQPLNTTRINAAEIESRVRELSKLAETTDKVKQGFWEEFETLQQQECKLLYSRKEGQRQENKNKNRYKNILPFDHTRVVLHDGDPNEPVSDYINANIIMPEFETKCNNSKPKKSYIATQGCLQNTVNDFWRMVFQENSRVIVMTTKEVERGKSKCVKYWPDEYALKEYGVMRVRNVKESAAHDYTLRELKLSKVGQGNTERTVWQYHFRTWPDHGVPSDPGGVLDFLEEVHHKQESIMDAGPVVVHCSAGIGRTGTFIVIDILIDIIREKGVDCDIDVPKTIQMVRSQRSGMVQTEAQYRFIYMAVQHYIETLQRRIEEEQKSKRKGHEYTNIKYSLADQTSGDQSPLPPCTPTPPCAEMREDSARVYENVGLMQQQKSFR

Row | Structure (SMILES) | IC50 (SHP2) [nM] | IC50 ([1]; Homo sapiens) [nM] | IC50 [1] [nM]
1 | Cn1cc2c(Cl)c(-c3c[nH]c4nc(N5CC(N)C(F)(F)C5)n(C)c(=O)c34)ccc2n1 (centres unmarked) [Example 53, 2-(4-amino-3,3-difluoropyrrolidin-1-yl)-5-(4-chloro-2-methyl-2H-indazol-5-yl)-3-methyl-3,7-dihydro-4H-pyrrolo[2,3-d]pyrimidin-4-one] | 330 | 3100 | 
2 | Cn1cc2c(Cl)c(-c3c[nH]c4nc(N5CC[C@](C)(N)C5)n(C)c(=O)c34)ccc2n1 [Example 54, (S)-2-(3-amino-3-methylpyrrolidin-1-yl)-5-(4-chloro-2-methyl-2H-indazol-5-yl)-3-methyl-3,7-dihydro-4H-pyrrolo[2,3-d]pyrimidin-4-one] | 110 | 1800 | 
3 | Cn1cc2c(Cl)c(-c3c[nH]c4nc(N5CC[C@@](C)(N)C5)n(C)c(=O)c34)ccc2n1 [Example 55, (R)-2-(3-amino-3-methylpyrrolidin-1-yl)-5-(4-chloro-2-methyl-2H-indazol-5-yl)-3-methyl-3,7-dihydro-4H-pyrrolo[2,3-d]pyrimidin-4-one] | 74 | 1100 | 
4 | C[C@@H]1CN(c2nc3[nH]cc(-c4ccc5nn(C)cc5c4Cl)c3c(=O)n2C)C[C@@H]1N [Example 56, 2-((3R,4R)-3-amino-4-methylpyrrolidin-1-yl)-5-(4-chloro-2-methyl-2H-indazol-5-yl)-3-methyl-3,7-dihydro-4H-pyrrolo[2,3-d]pyrimidin-4-one] | 73 | 1100 | 
5 | C[C@H]1CN(c2nc3[nH]cc(-c4ccc5nn(C)cc5c4Cl)c3c(=O)n2C)C[C@@H]1N [Example 57, 2-((3R,4S)-3-amino-4-methylpyrrolidin-1-yl)-5-(4-chloro-2-methyl-2H-indazol-5-yl)-3-methyl-3,7-dihydro-4H-pyrrolo[2,3-d]pyrimidin-4-one] | 120 | 2900 | 
6 | Cn1cc2c(Cl)c(-c3c[nH]c4nc(N5CCC(N)(CO)C5)n(C)c(=O)c34)ccc2n1 (centres unmarked) [Example 58, 2-(3-amino-3-(hydroxymethyl)pyrrolidin-1-yl)-5-(4-chloro-2-methyl-2H-indazol-5-yl)-3-methyl-3,7-dihydro-4H-pyrrolo[2,3-d]pyrimidin-4-one] | 99 | > 10000 | 
7 | C[C@@H]1OCC2(CCN(c3nc4[nH]cc(-c5ccc6nn(C)cc6c5Cl)c4c(=O)n3C)CC2)[C@@H]1N [Example 59, 2-((3S,4S)-4-amino-3-methyl-2-oxa-8-azaspiro[4.5]decan-8-yl)-5-(4-chloro-2-methyl-2H-indazol-5-yl)-3-methyl-3,7-dihydro-4H-pyrrolo[2,3-d]pyrimidin-4-one] | 5.5 | 48 | 
8 | Cn1cc2c(Cl)c(-c3c[nH]c4nc(N5CC[C@H](CN)C5)n(C)c(=O)c34)ccc2n1 [Example 60, (R)-2-(3-(aminomethyl)pyrrolidin-1-yl)-5-(4-chloro-2-methyl-2H-indazol-5-yl)-3-methyl-3,7-dihydro-4H-pyrrolo[2,3-d]pyrimidin-4-one] | 82 | 3800 | 
9 | Cn1cc2c(Cl)c(-c3c[nH]c4nc(N5CC6CC6(N)C5)n(C)c(=O)c34)ccc2n1 (centres unmarked) [Example 61, 2-(1-amino-3-azabicyclo[3.1.0]hexan-3-yl)-5-(4-chloro-2-methyl-2H-indazol-5-yl)-3-methyl-3,7-dihydro-4H-pyrrolo[2,3-d]pyrimidin-4-one] | 98 | 1800 | 
10 | Cn1cc2c(Cl)c(-c3c[nH]c4nc(N5CC6C(N)C6C5)n(C)c(=O)c34)ccc2n1 (centres unmarked) [Example 62, 2-(6-amino-3-azabicyclo[3.1.0]hexan-3-yl)-5-(4-chloro-2-methyl-2H-indazol-5-yl)-3-methyl-3,7-dihydro-4H-pyrrolo[2,3-d]pyrimidin-4-one] | 23 | 360 | 
11 | Cn1cc2c(Cl)c(-c3c[nH]c4nc(N5CC[C@@H](CN)C5)n(C)c(=O)c34)ccc2n1 [Example 63, (S)-2-(3-(aminomethyl)pyrrolidin-1-yl)-5-(4-chloro-2-methyl-2H-indazol-5-yl)-3-methyl-3,7-dihydro-4H-pyrrolo[2,3-d]pyrimidin-4-one] | 110 | 4300 | 
12 | COC1(CN)CCN(c2nc3[nH]cc(-c4ccc5nn(C)cc5c4Cl)c3c(=O)n2C)CC1 [Example 64, 2-(4-(aminomethyl)-4-methoxypiperidin-1-yl)-5-(4-chloro-2-methyl-2H-indazol-5-yl)-3-methyl-3,7-dihydro-4H-pyrrolo[2,3-d]pyrimidin-4-one] | 42 | 1500 | 
13 | Cn1cc2c(Cl)c(-c3c[nH]c4nc(N5CCC(F)(CN)CC5)n(C)c(=O)c34)ccc2n1 [Example 65, 2-(4-(aminomethyl)-4-fluoropiperidin-1-yl)-5-(4-chloro-2-methyl-2H-indazol-5-yl)-3-methyl-3,7-dihydro-4H-pyrrolo[2,3-d]pyrimidin-4-one] | 33 | 430 | 
14 | CCn1cc2c(Cl)c(-c3c[nH]c4nc(N5C6CCCC5CNC6)n(C)c(=O)c34)ccc2n1 [Example 66, 2-(3,9-diazabicyclo[3.3.1]nonan-9-yl)-5-(4-chloro-2-ethyl-2H-indazol-5-yl)-3-methyl-3,7-dihydro-4H-pyrrolo[2,3-d]pyrimidin-4-one] | 8.2 | 82 | 
15 | Cn1cc2cc(-c3c[nH]c4nc(N5[C@@H]6CC[C@H]5C[C@@H](N)C6)n(C)c(=O)c34)ccc2n1 [Example 67, 2-(endo-3-amino-8-azabicyclo[3.2.1]octan-8-yl)-3-methyl-5-(2-methyl-2H-indazol-5-yl)-3,7-dihydro-4H-pyrrolo[2,3-d]pyrimidin-4-one] | 340 | 3400 | 
16 | Cc1nc2ccc(-c3c[nH]c4nc(N5[C@@H]6CC[C@H]5C[C@@H](N)C6)n(C)c(=O)c34)c(Cl)c2o1 [Example 68, 2-(endo-3-amino-8-azabicyclo[3.2.1]octan-8-yl)-5-(7-chloro-2-methylbenzo[d]oxazol-6-yl)-3-methyl-3,7-dihydro-4H-pyrrolo[2,3-d]pyrimidin-4-one] | 41 | 670 | 
17 | CCc1nc2ccc(-c3c[nH]c4nc(N5[C@@H]6CC[C@H]5C[C@@H](N)C6)n(C)c(=O)c34)c(Cl)c2o1 [Example 69, 2-(endo-3-amino-8-azabicyclo[3.2.1]octan-8-yl)-5-(7-chloro-2-ethylbenzo[d]oxazol-6-yl)-3-methyl-3,7-dihydro-4H-pyrrolo[2,3-d]pyrimidin-4-one] | 120 | 3000 | 
18 | Cn1cc2c(F)c(-c3c[nH]c4nc(N5[C@@H]6CC[C@H]5C[C@@H](N)C6)n(C)c(=O)c34)ccc2n1 [Example 70, 2-(endo-3-amino-8-azabicyclo[3.2.1]octan-8-yl)-5-(4-fluoro-2-methyl-2H-indazol-5-yl)-3-methyl-3,7-dihydro-4H-pyrrolo[2,3-d]pyrimidin-4-one] | 29 | 190 | 
19 | Cn1c(N2C3CCC2CC(N)C3)nc2[nH]cc(-c3cc4nnn(C)c4c(F)c3F)c2c1=O (stereo not drawn) [Example 71, 2-(endo-3-amino-8-azabicyclo[3.2.1]octan-8-yl)-5-(6,7-difluoro-1-methyl-1H-benzo[d][1,2,3]triazol-5-yl)-3-methyl-3,7-dihydro-4H-pyrrolo[2,3-d]pyrimidin-4-one] | 260 |  | 5000
